Measurements: US20060088533A1, “Methods of treating inflammatory bowel disease” (priority 2004, published 2006)

Columns and labels:
ERK1/2 = test: Western blot of ERK1/2 phosphorylation in colonocytes exposed to C. difficile toxin or LPA; format: cell-based, human; conditions: for TxB's activation of ERK: colonocytes preincubated with BAPTA 20uM or GF109203X 1uM before TxB addition
Description: NCM460 or HT29 cells were seeded in 12 well plates and grown to 70%-100% confluency. Cells were serum starved overnight prior to experiments. TxB or TxA were added in serum free medium at the indicated concentrations for varying lengths of time. Cells were then washed three times with ice cold phosphate buffered saline (PBS) and lysed in 1×SDS sample buffer (Cell Signaling Technology, Beverly, Mass.). Equal amounts of cell lysates were loaded onto 10% SDS-PAGE gels and transferred to nitrocellulose membranes (Bio-Rad Laboratories, Hercules, Calif.). Blots were probed with each primary antibody overnight at 4° C. and then with species-specific secondary antibodies coupled with horseradish peroxidase for 1 hour at room temperature. Peroxidase activity was detected by SuperSignal Chemiluminescent Substrate (Pierce, Rockford, Ill.). Signals were analyzed and quantified as described (Na, X. et al., EMBO J., 22:4249-4259 (2003)) and results were expressed as mean ±SD.

Rho = test: C3 exoenzyme-catalyzed ADP-ribosylation assay (TxB-induced Rho glucosylation); format: cell-based, human; conditions: NCM460 cells; EGFR antibody 20 μg/ml or AG1478 0.5 μM 30 minutes, then TxB 20 nM 1 hour
NCM460 cells = test: Cell rounding assay; format: cell-based, human; conditions: EGFR antibody 20 μg/ml or AG1478 0.5 μM 30 minutes, then TxB 20 nM 1 hour
Description: NCM460 cells were seeded on glass cover slides overnight. […] Cells were then fixed with formaldehyde for 10 minutes and rinsed three times in PBS. Percentage of cell rounding was quantitated by phase-contrast microscopy.

IL-8 promoter = test: IL-8 luciferase promoter assay; format: cell-based, human; conditions: NCM460 cells; inhibitor 30 minutes, then TxB 20 nM 16 hours; versus DMSO
Description: A 1521-bp fragment (nucleotides −1481 to +40) of the promoter region of the human IL-8 gene was used to monitor transcription of IL-8 gene as previously described (Keates, S. et al., J. Biol. Chem., 276:48127-48134 (2001)). Cells were grown on 24-well plates and transiently transfected with the IL-8 promoter luciferase construct and a control luciferase construct pRL-TK (Promega Corp., Madison, Wis.) using Superfect (Qiagen Inc., Chatsworth, Calif.). Transfected cells were serum starved overnight and then exposed to TxB and/or pharmacological inhibitors at the indicated times. Cells were lysed, and firefly and renilla luciferase activities in cell extracts were measured using Dual-Luciferase Reporter Assay System (Promega Corp., Madison, Wis.). The relative luciferase activity was calculated by normalizing IL-8 promoter-driven firefly luciferase activity to control Renilla luciferase activity. Data from all experiments are represented as the relative luciferase activity (mean ±SD) from at least three independent sets of experiments, each with triplicate measurements.

IL-8 [1] = conditions: cited from earlier work
IL-8 [2] = conditions: cited from earlier work; remark: listed apart in the source
EGFR = target: T1, EGFR (Homo sapiens, UniProt P00533); test: Western blot of EGFR phosphorylation in colonocytes exposed to C. difficile toxin; format: cell-based; conditions: for TxB's activation of EGFR: colonocytes preincubated with BAPTA 20uM or GF109203X 1uM before TxB addition
T1 construct: endogenous in cells; host or cells: NCM460 (nontransformed human colonic epithelial cells); HT29 (colonic adenocarcinoma cells)
T1 sequence (P00533 25-1210): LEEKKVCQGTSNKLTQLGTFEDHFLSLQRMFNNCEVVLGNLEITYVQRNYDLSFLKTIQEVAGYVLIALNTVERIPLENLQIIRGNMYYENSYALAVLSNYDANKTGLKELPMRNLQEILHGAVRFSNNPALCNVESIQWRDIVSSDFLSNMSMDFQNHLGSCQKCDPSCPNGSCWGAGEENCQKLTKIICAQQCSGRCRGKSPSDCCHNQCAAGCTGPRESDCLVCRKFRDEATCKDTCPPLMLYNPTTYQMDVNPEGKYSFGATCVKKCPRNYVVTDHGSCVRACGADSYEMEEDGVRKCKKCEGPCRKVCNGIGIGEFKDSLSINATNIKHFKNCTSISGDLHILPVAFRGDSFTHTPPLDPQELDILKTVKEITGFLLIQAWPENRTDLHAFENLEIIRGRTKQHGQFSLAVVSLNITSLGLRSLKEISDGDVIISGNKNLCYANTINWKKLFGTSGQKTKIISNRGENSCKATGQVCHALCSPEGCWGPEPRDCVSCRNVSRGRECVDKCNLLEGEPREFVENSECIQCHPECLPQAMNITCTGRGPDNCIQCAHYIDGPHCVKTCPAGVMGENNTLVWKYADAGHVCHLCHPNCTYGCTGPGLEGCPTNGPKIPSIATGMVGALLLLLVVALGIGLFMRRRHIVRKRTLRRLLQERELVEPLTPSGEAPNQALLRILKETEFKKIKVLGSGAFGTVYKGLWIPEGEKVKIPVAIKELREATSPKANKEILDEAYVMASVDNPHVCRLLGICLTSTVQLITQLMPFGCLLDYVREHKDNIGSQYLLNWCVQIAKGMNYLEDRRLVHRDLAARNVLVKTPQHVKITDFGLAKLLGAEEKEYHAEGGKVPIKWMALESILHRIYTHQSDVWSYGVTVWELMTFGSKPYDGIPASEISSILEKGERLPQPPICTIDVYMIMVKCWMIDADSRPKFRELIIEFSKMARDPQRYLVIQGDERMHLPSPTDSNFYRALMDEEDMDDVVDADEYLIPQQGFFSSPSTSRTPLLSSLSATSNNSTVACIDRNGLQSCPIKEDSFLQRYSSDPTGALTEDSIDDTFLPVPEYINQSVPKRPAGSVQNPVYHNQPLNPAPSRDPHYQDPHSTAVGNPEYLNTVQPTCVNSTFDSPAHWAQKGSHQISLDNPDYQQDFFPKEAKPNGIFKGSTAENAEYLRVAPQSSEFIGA

TGF-α = TGF-α secretion ELISA; format: cell-based, human; conditions: NCM460 cells; GM6001 25 μM 30 minutes prior to TxB for 1 or 3 hours; versus DMSO
Description: TGF-α secretion from colonocyte cultures was measured by enzyme-linked immunosorbent assay. Briefly, 96-well Nunc-immuno plates (Fisher Scientific) were coated with 0.4 ug/ml of TGF-α antibody diluted in PBS overnight at room temperature. Wells were blocked with PBS containing 1% BSA for 1 hour after washing 3 times with PBST (PBS with 0.1% Twin-20). Fifty μl of conditioned media or serial dilutions of TGF-α in PBS containing 1% BSA were then added to each well. After 2 hours, wells were washed and incubated with 0.3 μg/ml biotin-conjugated anti-TGF-α antibody for 1 hour. Streptavidin-horseradish peroxidase (1:1500) from Amersham Bioscience (Amersham, UK) was added to the wells. Peroxidase activity was measured by TMB Peroxidase Substrate Reagents (KPL Inc, Gaithersburg, Md.).

In the case of `COc1cc2ncnc(Nc3cccc(Cl)c3)c2cc1OC` [AG1478, tyrphostin AG1478], the “Activation of ERK1/2 by TxB” value (ERK1/2; NCM460 cells, AG1478 0.2-1.0 uM for 30 minutes, then TxB 20 nM 60 minutes) is reported as “completely blocked”, the “TxB-induced Rho glucosylation” value (Rho) is reported as “neither an EGFR antibody, nor a specific EGFR inhibitor, AG1478, altered” and the TxB-induced cell rounding (NCM460 cells) is reported as “neither an EGFR antibody, nor a specific EGFR inhibitor, AG1478, altered”. For the same compound, the “TxB-mediated IL-8 expression” value (IL-8 promoter) was “significantly inhibited”, the “IL-8 production mediated by H. pylori” value (IL-8 [1]) was “significantly reduced” and the “IL-8 production mediated by neurotensin” value (IL-8 [2]) was “significantly reduced”.

In the case of `O=C(O)CN(CC(=O)O)c1ccccc1OCCOc1ccccc1N(CC(=O)O)CC(=O)O` [BAPTA], the “TxB's activation of EGFR” value (EGFR) is reported as “decreased” and the “TxB's activation of ERK” value (ERK1/2) is reported as “decreased”.

In the case of `CN(C)CCCn1cc(C2=C(c3c[nH]c4ccccc34)C(=O)NC2=O)c2ccccc21` [GF109203X], the “TxB's activation of EGFR” value (EGFR) is reported as “decreased” and the “TxB's activation of ERK” value (ERK1/2) is reported as “decreased”.

In the case of `CNC(=O)[C@H](Cc1c[nH]c2ccccc12)NC(=O)[C@@H](CC(=O)NO)CC(C)C` [GM6001], the “Activation of the EGFR induced by TxB” value (EGFR; NCM460 cells, BB94 or GM6001 25 μM 30 minutes prior to TxB 20 nM, versus DMSO at 60 minutes) is reported as “significantly inhibited”, the “Activation of ERK1/2 induced by TxB” value (ERK1/2; NCM460 cells, BB94 3 mg/ml or GM6001 25 μM 30 minutes prior to TxB 20 nM, versus DMSO at 60 minutes) is reported as “significantly inhibited” and the “TxB-induced TGF-α secretion” value (TGF-α) is reported as “significantly inhibited”.

With `COc1cccc(-c2cc(=O)c3ccccc3o2)c1N` [PD98059] the “TxB-mediated IL-8 expression” value (IL-8 promoter) was “significantly inhibited”.
